Common to all, as to assay: DTP human tumour cell line panel, 48 h
The subject of experiment [1] is SN12C renal.
For experiment [2], the system named is HCT-116 colon.
Experiment [3] has as its system COLO 205 colon.
Experiment [4] deals with HCC-2998 colon.
Experiment [5] deals with HCT-15 colon.
For experiment [6], the system named is NCI-H460 lung.
Experiment [7] deals with 786-0 renal.
The test system of experiment [8] is U251 CNS.
The subject of experiment [9] is SK-MEL-28 melanoma.
Experiment [10] deals with SF-268 CNS.

The structures appear in SMILES notation.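 How tested: cells in 96-well plates exposed to compound for 48 hours at five concentrations. Here, GI50 denotes the concentration required for 50% inhibition of growth. Definition used: TGI = concentration required for complete inhibition of growth.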

Results on 7 molecules are retold here after PubChem BioAssay (NCI).

On to `C[n+]1cccc(NC(=O)c2ccc3ccc4ccc(C(=O)Nc5ccc[n+](C)c5)nc4c3n2)c1`, for which the GI50 (commonly the concentration that inhibits growth by half) is 0.157 µM in experiment [1]; 3.18 µM in [2]; 4.35 µM in [3]; 3.04 µM in experiment [4]; 3.37 µM in experiment [5]; 0.149 µM in experiment [6]. Besides, the GI50 in experiment [7] was 8.99 µM; in experiment [8] it was 2.23 µM; in [9], 2.13 µM; in experiment [10] it was 3.82 µM. Also, the TGI (in general, the concentration at which net growth stops) is 1.32 µM in experiment [1]; > 100 µM in [2]; > 100 µM in [3]; > 100 µM in [4]; > 100 µM in [5]; 3.42 µM in [6]. Further, the TGI in [7] is > 100 µM; in [8] it was > 100 µM; in experiment [9] it was > 100 µM; in experiment [10], 42.1 µM.
With `Nc1c(C(=O)Nc2cccc(Cl)c2)sc2nc3c(cc12)C(O)CCC3` (stereo not given), the GI50 in experiment [1] is 0.773 µM; in [2], 0.44 µM; in [3] it was 0.348 µM; in experiment [4] it was 2.39 µM; in [5] it was 0.37 µM; in experiment [6], 0.388 µM. Moreover, the GI50 in [7] is 0.66 µM; in experiment [8], 0.379 µM; in experiment [9], 3.02 µM; in experiment [10], 0.754 µM. In addition, the TGI in experiment [1] was > 100 µM; in [2], 19.1 µM; in experiment [3], 3.53 µM; in experiment [4], 25.7 µM; in experiment [5], > 100 µM; in [6], 16.8 µM. The TGI in [7] was 20.4 µM; in experiment [8], 13.6 µM; in [9], 59 µM; in experiment [10] it was 39.1 µM.
With `COc1cccc2nc(Nc3cccc(NC(=O)c4ccc(N5CCN(C)CC5)c(C(F)(F)F)c4)c3)ccc12`, the GI50 in experiment [1] was 1.7 µM; in experiment [2], 0.869 µM; in experiment [3], 0.909 µM; in experiment [4], 0.95 µM; in [5], 0.937 µM; in experiment [6], 0.964 µM. Further, the GI50 was 0.923 µM in experiment [7], 0.885 µM in experiment [8], 0.896 µM in [9] and 1.5 µM in [10]. In addition, the concentration for total growth inhibition (TGI) in experiment [1] stood at 7.47 µM; in [2], 1.89 µM; in experiment [3] it was 1.83 µM; in [4] it was 1.78 µM; in [5] it was 2.03 µM; in experiment [6] it was 1.98 µM. Moreover, the TGI was found to be 1.78 µM in experiment [7], 1.68 µM in experiment [8], 1.64 µM in experiment [9] and 7.3 µM in experiment [10].
Turning to `Cc1[nH]c(C(=O)Nc2cccc(OC3CCNCC3)c2)c(Cl)c1Cl`, the GI50 in experiment [1] was 2.8 µM; in experiment [2], 1.65 µM; in experiment [3], 1.93 µM; in experiment [4], 1.76 µM; in experiment [5], 1.73 µM; in experiment [6] it was 1.95 µM. Moreover, the GI50 in experiment [7] is 1.83 µM; in experiment [8], 1.93 µM; in experiment [9], 1.64 µM; in experiment [10] it was 1.77 µM. Besides, the TGI came to 10.1 µM in experiment [1]; 3.24 µM in experiment [2]; 4.02 µM in [3]; 3.31 µM in [4]; 3.36 µM in experiment [5]; 3.7 µM in experiment [6]. Also, the TGI came to 3.44 µM in experiment [7], 4.19 µM in experiment [8], 3.07 µM in [9] and 3.75 µM in experiment [10].
Regarding `C=C(C(=O)c1ccccc1)C(NC(C)(C)C)c1ccccc1` (stereo not given), the GI50 is 2.12 µM in experiment [1]; 1.33 µM in experiment [2]; 1.29 µM in experiment [3]; 1.81 µM in [4]; 1.88 µM in experiment [5]; 2.15 µM in experiment [6]. For the same molecule, the GI50 is 2.06 µM in [7], 2.2 µM in [8], 1.84 µM in [9] and 3.61 µM in experiment [10]. In addition, the concentration for total growth inhibition (TGI) in experiment [1] stood at 5.38 µM; in [2], 2.92 µM; in experiment [3], 2.81 µM; in experiment [4], 3.38 µM; in [5], 10 µM; in [6] it was 5.23 µM. For the same molecule, the TGI in [7] was found to be 4.08 µM; in experiment [8], 6.21 µM; in experiment [9], 3.72 µM; in experiment [10], 18.6 µM.
As to `CC(=O)OC(C(=O)[O][Ge]([CH3])([CH3])[CH3])c1ccccc1` (stereo not given), the GI50 in [1], in experiment [2], in experiment [3], in experiment [4], in experiment [5] and in experiment [6] was > 100 µM in each case. The GI50 in experiment [7], in experiment [8], in experiment [9] and in experiment [10] was > 100 µM throughout. Further, the TGI in [1], in [2], in [3], in experiment [4], in experiment [5] and in experiment [6] was > 100 µM throughout. The TGI in experiment [7], in [8], in [9] and in experiment [10] was > 100 µM each time.
Turning to `COc1cc(-c2oc3c(OC)c(O)c(OC)c(O)c3c(=O)c2OC)cc(OC)c1OC`, the TGI in experiment [1], in experiment [2], in experiment [3], in experiment [4], in [5] and in experiment [6] was > 100 µM throughout. The TGI is > 100 µM in experiment [7], > 100 µM in [8], > 100 µM in [9] and 71.5 µM in [10].
